Legend:
spinal cord-injured rats = assay: Inhibitory activity on detrusor hyperreflexia (cystometry test); assay type: in vivo, rat; settings: average ± standard error
Protocol: The experiment was carried out according to the method of Cheng, et al. [Brain Res., Vol. 678, pp. 40-48 (1995)].
(§1) Female SD rats of 8 to 10 weeks of age (supplied by Japan SLC) were used in the test. Five to seven animals of these rats were put in each metal cage and reared by allowing them to freely take commercially available chow and water, in an animal room at room temperature between 19 and 25° C. and humidity between 30 and 70% under illumination for 12 hours (from 7:00 a.m. to 7:00 p.m.) per day.
An operation of spinal cord injury was performed in the rats. Each animal was anesthetized with diethyl ether and the skin of the back side thoracic cord part was incised. A laminectomy at the 7th to 8th thoracic vertebrae level was performed. Then, the thoracic cord at the T7-T8 segments was macroscopically cut and a section of spinal cord (about 5 mm) was removed, and the wound cavity of the removed part was filled with oxidized regenerated cellulose for hemostasis. The incised part was sutured with a surgical silk. After the spinal cord injury operation, urine was expressed manually twice per day (at 8:00-9:00 and 18:00-19:00) for about 3 weeks until autonomic micturition developed. An antibiotic (ampicillin, Sigma. Chemical Co.) was intramuscularly administered to the animals at a dose of 150 mg/kg once to twice per day for about 2 weeks.
(§2) Four to five weeks after the spinal cord injury, the rats were subjected to bladder catheterization. Under diethyl ether anesthesia, the bladder was exposed by midline incision of the abdomen. […] The bladder catheter was fixed with a surgical silk ligature and indwelled. The other end of the catheter was exposed subcutaneously from the back of the neck, plugged and then fixed to the skin with a surgical thread.
Four to six days after the bladder catheterization, a cystometry test was performed. The rats were put in a Bollman cage (Natsume Seisakusho Co., Ltd.) and a three-way cock was connected to the bladder catheter, one end of the cock was connected to a pressure transducer (Nihon Kohden Corp.) and the other end was connected to a 50-mL syringe (Terumo Corp.) arranged to an infusion pump (Harvard Apparatus, Inc.) for physiological saline infusion. The intravesical pressure signal from the pressure transducer was amplified with a strain pressure amplifier (AP-601G, Nihon Kohden Corp.) connected thereto, and was recorded on a thermal array recorder (RTA-1200, Nihon Kohden Corp.) via a polygraph system (RMP-6008, Nihon Kohden Corp.) containing the above amplifier. Sixty to ninety minutes after the completion of the preparation for the measurement, a room temperature physiological saline was infused into the bladder at a flow rate of 10 mL/h for 30 minutes, the occurence of micturition contractions was confirmed. Thirty minutes later, the infusion of physiological saline was carried out again for 30 minutes, and the intravesical pressure was measured to be used as the pre-administration value. Each of Compounds 1 to 6 was suspended in a 0.5 w/v % aqueous solution of methylcellulose at a concentration of 1 mg/mL suspension. The suspension was further diluted with a 0.5 w/v % aqueous solution of methylcellulose to prepare a suspension or solution for the administration at the intended concentration, which was then orally administered to the animals at a volume of 1 mL/kg. The period of 1, 3 and 5 hours after the dosing was used as the measuring time after the administration of the solvent or a compound tested, and the intravesical infusion of a physiological saline was carried out during a duration of 15 minutes around each measuring time (i.e. from 45 to 75 minutes, from 165 to 195 minutes and from 285 to 315 minutes after the administration of the compound).
Micturition contraction was measured as an index of the voiding function and pre-micturition contraction was measured as an index of detrusor hyperreflexia. […]

[1] = tested on: rats with bladder hypertrophy; assay: Inhibitory activity on detrusor instability (cystometry test after partial urethral obstruction); assay type: in vivo, rat; settings: average ± standard error
Protocol: The experiment was carried out according to the method of Malmgren, et al. [J. Urol., Vol. 142, pp. 1134-1138 (1989)].
as §1, with “(7:00 a.m.-7:00” for “(from 7:00 a.m. to 7:00”
The rats were subjected to operation of partial urethral obstruction. Each animal was anesthetized by intraperitoneal administration of 50 mg/kg pentobarbital sodium (Dainippon Pharmaceutical Co., Ltd.), and the midline incision of the skin and muscle was made in the lower abdomen. A polyethylene tube (PE-20, Nippon Becton Dickinson Co., Ltd.) was inserted into urethra from the urethral to the bladder neck. After the proximal urethra was peeled and double-ligated, the polyethylene tube was pulled out to cause partial urethral obstruction. The incised part was-sutured with a surgical silk thread. An antibiotic (ampicillin, Sigma Chemical Co.) was intramusclarly administered to the animals at a dose of 150 mg/kg.
as §2, with “Six” for “Four to five”, “operation of the partial urethral obstruction,” for “spinal cord injury,”, “rats with bladder hypertrophy” for “rats”, “anesthesia with pentobarbital sodium,” for “diethyl ether anesthesia,”
Four to six days after the bladder catheterization, a cystometry test was performed. The rats were put in a Bollman cage (Natsume Seisakusho Co., Ltd.) and a three-way cock was connected to the bladder catheter, one end of the cock was connected to a pressure transducer (Nihon Kohden Corp.) and the other end was connected to a 50-mL syringe (Terumo Corp.) arranged to an infusion pump (Harvard Apparatus, Inc.) for physiological saline infusion. The intravesical pressure signal from the pressure transducer was amplified with a strain pressure amplifier (AP-601G, Nihon Kohden Corp.) connected thereto, and was recorded on a thermal array recorder (RTA-1200, Nihon Kohden Corp.) via a polygraph system (RMP-6008, Nihon Kohden Corp.) containing the above amplifier. Sixty to ninety minutes after the completion of the preparation for the measurement, intravesical infusion of a room temperature physiological saline at a flow rate of 10 mL/h was started and continued until the completion of the test, and the occurrence of micturition contractions and pre-micturition contractions were confirmed. The chart for 30 minutes after 3 hours from the commencement of the saline infusion was used as the values before the drug administration. Each of Compounds 1 to 3 was suspended in a 0.5 w/v % aqueous solution of methylcellulose at a concentration of 1 mg/mL. The suspension was further diluted with a 0.5 w/v % aqueous solution of methylcellulose to prepare a suspension or solution for the administration at the intended concentration. This was then orally administered to the animals at a volume of 1 mL/kg. The period of 1, 3 and 5 hours after the dosing was used as the measuring time after the administration of the solvent or a compound tested, and a duration of 15 minutes around each measuring time (45 to 75 minutes, 165 to 195 minutes and 285 to 315 minutes after the administration of the compound) was used as the measuring period.
Micturition contraction was used as an index of the voiding function and pre-micturition contraction was measure as an index of detrusor instability. […]

dd male mice = assay: Acute toxicity test; assay type: in vivo; settings: oral administration, mortality on the seventh day after administration
Protocol: The test compound was administered orally or intraperitoneally to 3 animals per group of dd male mice (body weight: 20±1 g). The minimum lethal dose (MLD) value was obtained by observing mortality on the seventh day after the administration calculated.

C[C@](O)(C(=O)Nc1cccc2c1C(=O)c1sccc1CS2(=O)=O)C(F)(F)F [Compound 1]
micturition contractions (relative value, before administration = 100) (spinal cord-injured rats; 0.001 mg/kg p.o., after 1 hr.): 106.5 ± 11.3%
pre-micturition contractions (relative value, before administration = 100) (spinal cord-injured rats; 0.001 mg/kg p.o., after 1 hr.): 83.5 ± 6.8%
micturition contractions (relative value, before administration = 100) (spinal cord-injured rats; 0.001 mg/kg p.o., after 3 hrs.): 101.7 ± 9.5%
pre-micturition contractions (relative value, before administration = 100) (spinal cord-injured rats; 0.001 mg/kg p.o., after 3 hrs.): 95.4 ± 12.0%
micturition contractions (relative value, before administration = 100) (spinal cord-injured rats; 0.001 mg/kg p.o., after 5 hrs.): 103.1 ± 6.5%
pre-micturition contractions (relative value, before administration = 100) (spinal cord-injured rats; 0.001 mg/kg p.o., after 5 hrs.): 105.5 ± 20.8%
micturition contractions (relative value, before administration = 100) (spinal cord-injured rats; 0.01 mg/kg p.o., after 1 hr.): 114.4 ± 9.5%
pre-micturition contractions (relative value, before administration = 100) (spinal cord-injured rats; 0.01 mg/kg p.o., after 1 hr.): 59.6 ± 8.1 %
micturition contractions (relative value, before administration = 100) (spinal cord-injured rats; 0.01 mg/kg p.o., after 3 hrs.): 117.6 ± 13.9%
pre-micturition contractions (relative value, before administration = 100) (spinal cord-injured rats; 0.01 mg/kg p.o., after 3 hrs.): 51.2 ± 6.7 %
micturition contractions (relative value, before administration = 100) (spinal cord-injured rats; 0.01 mg/kg p.o., after 5 hrs.): 117.6 ± 12.7%
pre-micturition contractions (relative value, before administration = 100) (spinal cord-injured rats; 0.01 mg/kg p.o., after 5 hrs.): 42.2 ± 7.2 %
micturition contractions (relative value, before administration = 100) (spinal cord-injured rats; 0.1 mg/kg p.o., after 1 hr.): 109.3 ± 6.3%
pre-micturition contractions (relative value, before administration = 100) (spinal cord-injured rats; 0.1 mg/kg p.o., after 1 hr.): 52.3 ± 9.1 %
micturition contractions (relative value, before administration = 100) (spinal cord-injured rats; 0.1 mg/kg p.o., after 3 hrs.): 110.2 ± 5.4%
pre-micturition contractions (relative value, before administration = 100) (spinal cord-injured rats; 0.1 mg/kg p.o., after 3 hrs.): 33.3 ± 6.3 %
micturition contractions (relative value, before administration = 100) (spinal cord-injured rats; 0.1 mg/kg p.o., after 5 hrs.): 112.4 ± 7.0%
pre-micturition contractions (relative value, before administration = 100) (spinal cord-injured rats; 0.1 mg/kg p.o., after 5 hrs.): 28.5 ± 6.2 %
micturition contractions (relative value, before administration = 100) ([1]; 0.001 mg/kg p.o., after 1 hr.): 99.3 ± 2.3%
pre-micturition contractions (relative value, before administration = 100) ([1]; 0.001 mg/kg p.o., after 1 hr.): 105.9 ± 7.8%
micturition contractions (relative value, before administration = 100) ([1]; 0.001 mg/kg p.o., after 3 hrs.): 101.5 ± 3.3%
pre-micturition contractions (relative value, before administration = 100) ([1]; 0.001 mg/kg p.o., after 3 hrs.): 100.3 ± 10.0%
micturition contractions (relative value, before administration = 100) ([1]; 0.001 mg/kg p.o., after 5 hrs.): 98.7 ± 5.2%
pre-micturition contractions (relative value, before administration = 100) ([1]; 0.001 mg/kg p.o., after 5 hrs.): 104.2 ± 10.2%
micturition contractions (relative value, before administration = 100) ([1]; 0.01 mg/kg p.o., after 1 hr.): 99.6 ± 1.2%
pre-micturition contractions (relative value, before administration = 100) ([1]; 0.01 mg/kg p.o., after 1 hr.): 59.5 ± 4.1 %
micturition contractions (relative value, before administration = 100) ([1]; 0.01 mg/kg p.o., after 3 hrs.): 92.6 ± 3.2%
pre-micturition contractions (relative value, before administration = 100) ([1]; 0.01 mg/kg p.o., after 3 hrs.): 69.5 ± 4.4 %
micturition contractions (relative value, before administration = 100) ([1]; 0.01 mg/kg p.o., after 5 hrs.): 90.1 ± 4.3%
pre-micturition contractions (relative value, before administration = 100) ([1]; 0.01 mg/kg p.o., after 5 hrs.): 67.8 ± 5.5 %
micturition contractions (relative value, before administration = 100) ([1]; 0.1 mg/kg p.o., after 1 hr.): 106.2 ± 9.2%
pre-micturition contractions (relative value, before administration = 100) ([1]; 0.1 mg/kg p.o., after 1 hr.): 55.8 ± 8.2 %
micturition contractions (relative value, before administration = 100) ([1]; 0.1 mg/kg p.o., after 3 hrs.): 105.2 ± 9.6%
pre-micturition contractions (relative value, before administration = 100) ([1]; 0.1 mg/kg p.o., after 3 hrs.): 66.2 ± 4.7 %
micturition contractions (relative value, before administration = 100) ([1]; 0.1 mg/kg p.o., after 5 hrs.): 100.1 ± 8.6%
pre-micturition contractions (relative value, before administration = 100) ([1]; 0.1 mg/kg p.o., after 5 hrs.): 69.2 ± 7.4 %
minimum lethal dose (MLD) (dd male mice): > 1000 mg/kg
